Data published in patent publication US20140141069A1, “BETA-GUANIDINOPROPIONIC ACID FOR THE TREATMENT OF HYPERTENSION” (priority 2011, published 2014).
Like-named read-outs stand apart in the source and are kept apart here.

Columns and labels:
[1] = tested on: creatine kinase; settings: equimolar quantities of DNFB, cited from earlier work
[2] = tested on: ADP-dependent platelet aggregation; test: Blood CK titration at 1 μmol/L ADP, platelet aggregation (pilot experiment); type: cell-based
[3] = tested on: SHR mesenteric arteries; test: Vasodilation/contractility of SHR mesenteric arteries in vitro in a wire myograph with the CK-inhibitor DNFB; design: species or system rat; settings: p<0.01
[4] = tested on: Spontaneous Hypertension (SH) rats; test: Blood pressure of non-obese SH rats on creatine-free diet with 0.1% β-guanidinopropionic acid; type: in vivo, rat; settings: feed contained 0.1% β-guanidinopropionic acid
Text: The effects of β-guanidinopropionic acid can not be explained by, for example, a reduction in weight.

[5] = cited from earlier work
[6] = tested on: SHR; test: Tail cuff blood pressure in SHR on a diet with β-GPA versus standard diet (Example 5); type: in vivo, rat
Method: Male, non-obese, normoglycaemic, 16-weeks-old SHR without lipid abnormalities were randomly assigned to a diet with β-GPA versus a standard diet without β-GPA (N=8 per group). Blood pressure was measured weekly with the tail cuff method. All blood pressure measurements were performed unblinded under equal conditions. Body temperature was kept constant during the measurements at 36-38° C. […] Data are expressed as mean (SEM).

[7] = Certified toxicological testing of marketed β-guanidinopropionic acid; settings: preliminary tests of product marketed for human use
[8] = tested on: SH rats; test: Tail cuff blood pressure in SH adult rats given 3% β-GPA (Example 4); type: in vivo, rat; settings: 3% β-GPA in feed, tailcuff method
Method: A total of 24 SH adult rats are divided into 4 groups: the test group is given 3% β-GPA , a second group is given 3% creatine, a third group is given 3% creatine +3% β-GPA; and a control group receives only normal feed. SH rats are usually also associated with high creatine kinase levels, although it is unknown whether this is cause or result of the spontaneous high blood pressure. […] Blood pressure was measured at the tail using standard methods (tailcuff method). In the control group, the blood pressure rises. An absence in the rise of blood pressure or even a reduction in the blood pressure in the test group indicates the blood pressure lowering effect of β-GPA. In order to exclude a possible effect of creatine deficiency or a possible effect of creatine itself on the blood pressure level, the two additional control groups (3% creatine or 3% creatine +3% β-GPA).

[9] = tested on: creatine kinase; settings: creatine kinase reaction; cited from earlier work
[10] = tested on: rats; settings: 1% in rat chow, up to 8 weeks of feeding; cited from earlier work
[11] = tested on: myocardial phosphocreatine and creatine; settings: high doses; cited from earlier work

O=[N+]([O-])c1ccc(F)c([N+](=O)[O-])c1 [DNFB, dinitrofluorobenzene]
Mean inhibition of contraction ([1]; blacks): 0.32
Mean inhibition of contraction ([1]; whites): 0.90

CN(CC(=O)O)C(=N)NP(=O)(O)O [CrP, phosphocreatine]
Inhibition of ADP-dependent platelet aggregation with increasing CK [2]: greater inhibition of ADP-dependent platelet aggregation

NC(N)=NCCC(=O)O [β-GPA, 3-(diaminomethylideneamino)propanoic acid]
Residual contractility after the CK inhibitor DNFB, versus controls ([3]; mesenteric arteries of rats treated with β-GPA compared to controls, DNFB, mean (SEM)): −41.3 (13.0) %
Vasodilation of mesenteric arteries compared to controls ([3]; rats treated with β-GPA before sacrifice, in vitro incubation with dinitrofluorobenzene, N=5 to 6 per group): significantly increased
Blood pressure rise characteristic for SH rats [4]: did not show blood pressure rise
Solubility in water [5]: up to 50 mg/ml
Weight changes ([6]; diet with β-GPA): no significant weight changes
Systolic pressure reduction ([6]; diet with β-GPA vs controls, 4 weeks, tail cuff, mean (SEM), N=8 per group, p<0.001): −42.7 (5.5) mm Hg
Diastolic pressure reduction ([6]; diet with β-GPA vs controls, tail cuff, mean (SEM), p<0.001): −35.3 (4.8) mm Hg
Certified toxicological testing [7]: passed certified toxicological testing
Blood pressure level versus control SH rats [8]: lower than that of the control SH rats
in vitro Vmax relative to the Vmax values of creatine and phosphocreatine [9]: < 1%
Cardiac function or sprint capacity in vivo [10]: does not lead to reduced cardiac function or overtly reduced sprint capacity
Reduction of myocardial phosphocreatine and creatine concentrations [11]: up to 80%
